US20050037446A1, “Agents that recognize src when phosphorylated at serine 17” (priority 2001, published 2005)

Tested on: Raf-1 and Rap1
Test: Association of Raf-1 with His-Rap1 (Ni-NTA pull-down), NIH3T3 cells
Type: cell-based
Settings: Forskolin-stimulated NIH3T3 cells
Protocol: NIH3T3 cells were transfected using Lipofectamine (see EXAMPLE 1) with polyhistidine-tagged Rap1 along with CBR or Cb1-ct (see EXAMPLE 2) as previously described (Schmitt and Stork, Mol. Cell. Biol. 21:3671-83, 2001; Schmitt and Stork, J. Biol. Chem. 275:25342-50,2000). Cells were left untreated or stimulated with Forskolin, as described in EXAMPLE 1. Subsequently, cells were lysed in ice-cold buffer containing 1% NP40, 10 mM Tris, pH 8.0, 20 mM NaCl, 30 mM MgCl2, 1 mM PMSF, and 0.5 mg/ml aprotinin and supernatants prepared by low speed centrifugation. Transfected His-Rap1 proteins were precipitated from supernatants containing equal amounts of protein using Ni-NTA agarose (Qiagen Inc., Chatswoth, Calif.) and washed with 20 mM imidazole in lysis buffer and eluted with 500 mM imidazole and 5 mM EDTA in phosphate-buffered saline. The eluates containing His-Rap1 proteins were separated on SDS-PAGE, blotted onto PVDF membranes, and Raf-1 proteins detected by Western blotting using anti-Raf-1 antibodies (Santa Cruz Biotechnology Inc.).

In the case of `CC(C)(C)n1nc(-c2ccc(Cl)cc2)c2c(N)ncnc21` [PP2, 4-amino-5-(4-chlorophenyl)-7-(t-butyl)pyazolo[3,4-d]pyrimidine], the “Effect on association between Raf-1 and Rap1” value is reported as “blocked”.
